{
  "source": "PubChem BioAssay AID1996",
  "data": [
    {"settings": "buffer; pH 7.4; 200.0 µM", "units": {"solubility kinetic": "mg/mL"}, "values": [
      {"molecule": "Nc1nonc1C(=O)NCCNc1ccc([N+](=O)[O-])cc1", "solubility kinetic": 0.0038},
      {"molecule": "CCOC(=O)c1c(/N=C/N(C)C)sc(C)c1C", "solubility kinetic": 0.0373},
      {"molecule": "CN1CCN(S(=O)(=O)c2cccc(C(=O)N3CCN(c4ccccc4)CC3)c2)CC1", "solubility kinetic": 0.0636},
      {"molecule": "COC(=O)[C@@H]1CCCN1Cc1nc(Cc2ccc(OC)c(OC)c2)no1", "solubility kinetic": "> 0.0542"},
      {"molecule": "c1ccc2c(c1)Sc1ccccc1N2CC1CN2CCC1CC2", "note": "(centres undefined)", "solubility kinetic": "> 0.0484"},
      {"molecule": "COc1ccc(CN2CCCCCC2)cc1Br", "solubility kinetic": 0.0433},
      {"molecule": "Cc1c[nH]c(=O)c([N+](=O)[O-])c1", "solubility kinetic": "> 0.0231"},
      {"molecule": "O=C(Nc1cc(S(=O)(=O)Nc2ccc(Cl)cc2)ccc1O)c1ccc(F)cc1F", "solubility kinetic": 0.0042},
      {"molecule": "COC(=O)c1ccc(NC(=O)Nc2ccc(OC)cc2)cc1", "solubility kinetic": 0.0014},
      {"molecule": "O=C(COC(=O)CCC(=O)c1ccc(F)cc1)Nc1ccc(Cl)cn1", "solubility kinetic": 0.0211},
      {"molecule": "CC(C)CC(=O)Nc1ccc(C(=O)CN2CCC(C)CC2)cc1", "solubility kinetic": 0.0394},
      {"molecule": "CC(OC(=O)c1ccc(C#N)cc1)C(=O)Nc1ccc(Cl)cn1", "note": "(centres undefined)", "solubility kinetic": 0.0054},
      {"molecule": "CCOC(=O)c1cc(=O)[nH]c2ccccc12", "solubility kinetic": 0.0306},
      {"molecule": "COc1ccccc1NC(=S)NC(=O)Cc1ccccc1", "solubility kinetic": 0.0005},
      {"molecule": "CC(C)(CN)CC(=O)O.Cl", "solubility kinetic": 0.0232},
      {"molecule": "O=c1c2c([N+](=O)[O-])cc([N+](=O)[O-])cc2nc2ccccn12", "solubility kinetic": 0.0032},
      {"molecule": "Cc1cc(C)cc(OCC(O)CN2CC(C)OC(C)C2)c1.Cl", "note": "(centres undefined)", "solubility kinetic": "> 0.0495"},
      {"molecule": "O=Cc1ccc(OCCN2CCCC2=O)cc1", "solubility kinetic": "> 0.035"},
      {"molecule": "Cc1cccc(C)c1NC(=O)C1CCN(C(=O)c2cccs2)CC1", "solubility kinetic": 0.0391},
      {"molecule": "Cc1ccc2nc(/C(C#N)=C/c3ccccc3C(=O)O)[nH]c2c1", "solubility kinetic": "> 0.0455"},
      {"molecule": "O=C(CSc1ccccn1)N1CCc2ccccc21", "solubility kinetic": 0.0037},
      {"molecule": "O=C(Nc1ccc(Cl)cc1N1CCOCC1)C1CC1", "solubility kinetic": "> 0.0421"},
      {"molecule": "O=C(N/N=C/c1ccccc1O)C(=O)N1CCCCCC1", "solubility kinetic": "> 0.0434"},
      {"molecule": "CCCn1c(=O)c2c(nc3n2CCN3Cc2ccco2)n(C)c1=O", "solubility kinetic": "> 0.0494"},
      {"molecule": "CNc1nc(-c2ccc3c(c2)CCN3C(=O)CC(C)(C)C)c(C)s1", "solubility kinetic": 0.0175},
      {"molecule": "Nc1nc(NCCOCCO)nc(NC2CCCCC2)c1[N+](=O)[O-]", "solubility kinetic": "> 0.0511"},
      {"molecule": "CN1c2ccc([N+](=O)[O-])cc2N(C)C1(C)c1ccccc1", "note": "(centres undefined)", "solubility kinetic": 0.0012},
      {"molecule": "O=C(CNS(=O)(=O)c1ccc(F)cc1)N1CCOCC1", "solubility kinetic": "> 0.0453"},
      {"molecule": "COc1ccc(C(C)=O)cc1Cn1c(=O)cc(C)[nH]c1=O", "solubility kinetic": "> 0.0432"},
      {"molecule": "COc1ccc(NC(=O)CSC2=NCCN2)cc1.Cl", "solubility kinetic": "> 0.0453"},
      {"molecule": "CCOC(=O)C[N+]1(C)CCN(C(C)=O)CC1.[Br-]", "solubility kinetic": "> 0.0464"},
      {"molecule": "O=C(COC(=O)Cc1c(F)cccc1Cl)Nc1ccc2[nH]c(=O)[nH]c2c1", "solubility kinetic": "> 0.0567"},
      {"molecule": "Oc1ccc(Cl)cc1CNc1ccccn1", "solubility kinetic": 0.0065},
      {"molecule": "COc1cccc(CN(C)C(=O)c2sccc2-c2ccccc2)c1OC", "solubility kinetic": 0.0346},
      {"molecule": "COc1ccccc1CNC(=O)CCCc1cn(C)c2ccccc12", "solubility kinetic": 0.0082},
      {"molecule": "Cc1cccc(NC(=O)COC(=O)c2cc(C)n(C3CC3)c2C)c1", "solubility kinetic": 0.0097},
      {"molecule": "COc1ccc2c(c1)c(C(C)=O)c(C)n2-c1ccc(C(C)=O)cc1", "solubility kinetic": "< 0.0007"},
      {"molecule": "COc1ccc(/C=C2\\SC(=O)N(CCCC(=O)Nc3cc(Cl)ccc3C(=O)O)C2=O)cc1", "solubility kinetic": "> 0.0712"},
      {"molecule": "CCNC(=S)Nn1cnc2ccccc21", "solubility kinetic": "> 0.033"},
      {"molecule": "Cc1ccc(NC(=O)c2ccccc2NC(=O)c2cccs2)cc1", "solubility kinetic": "< 0.0004"},
      {"molecule": "CC1(C)CC(=O)C(C(N)=NC(=O)c2ccc([N+](=O)[O-])cc2)=C(O)C1", "solubility kinetic": 0.0007},
      {"molecule": "NS(=O)(=O)c1ccc(SCc2ccccc2)nc1", "solubility kinetic": 0.0104},
      {"molecule": "COc1ccccc1CNC(=O)COC(=O)Cc1cccs1", "solubility kinetic": "> 0.0479"},
      {"molecule": "Cc1noc(C)c1-c1nc(CSc2ccccc2)no1", "solubility kinetic": 0.0008},
      {"molecule": "Fc1ccc(-c2csc(-c3ccc(C4SCCS4)cc3)n2)cc1F", "solubility kinetic": "< 0.0008"},
      {"molecule": "O=C(Nc1ccccc1N1CCCCC1)c1ccc(Cl)cc1", "solubility kinetic": 0.0015},
      {"molecule": "CCN(C(=O)COC(=O)c1ccc(SC)cc1OC)C1CCS(=O)(=O)C1", "note": "(centres undefined)", "solubility kinetic": "> 0.0602"},
      {"molecule": "Cc1ccc(-c2nc(-c3ccccn3)no2)cc1[N+](=O)[O-]", "solubility kinetic": 0.0074},
      {"molecule": "COc1ccc(C(=O)COC(=O)[C@@H](NS(=O)(=O)c2ccccc2)C(C)C)cc1", "solubility kinetic": 0.0078},
      {"molecule": "O=C(O)Cc1ccc(NC(=O)Cc2ccc3ccccc3c2)cc1", "solubility kinetic": 0.0037},
      {"molecule": "Cc1csc(NC(=O)[C@@H]2CCCN2C(=O)c2cccs2)n1", "solubility kinetic": 0.0442},
      {"molecule": "CN(C(=O)c1cccc(S(=O)(=O)NCc2ccccc2)c1)C1CCCCC1", "solubility kinetic": 0.0507},
      {"molecule": "Cc1ccc(N2C(=O)C3ON(c4ccccc4)C(CC(C)C)C3C2=O)cc1", "note": "(centres undefined)", "solubility kinetic": 0.0116},
      {"molecule": "Cc1ccccc1-c1nc2ccc(Cl)cc2c(=O)n1O", "solubility kinetic": "> 0.043"},
      {"molecule": "O=C(CNC(=O)c1ccc(Cl)cc1Cl)OCc1cn2cc(Br)ccc2n1", "solubility kinetic": 0.0297},
      {"molecule": "CSc1nc(N)nc(N(C)C)n1", "solubility kinetic": 0.0243},
      {"molecule": "O=C(CCN1CCN(CCO)CC1)Nc1ccc(Br)cc1", "solubility kinetic": "> 0.0534"},
      {"molecule": "CCn1cc(CCCC(=O)NCc2ccccc2OC)c2ccccc21", "solubility kinetic": 0.0102},
      {"molecule": "O=c1[nH]c(O)c(C=Nc2cccc(F)c2)c(=O)[nH]1", "solubility kinetic": 0.0048},
      {"molecule": "O=[N+]([O-])c1cc2c(cc1CN1CCN(c3ccccc3F)CC1)OCO2", "solubility kinetic": 0.0011},
      {"molecule": "COc1ccc(CN(C)C(=O)CCl)cc1", "solubility kinetic": "> 0.0342"},
      {"molecule": "Cc1ccc(NC(=O)CC(C)c2ccccc2)cc1S(=O)(=O)N1CCOCC1", "note": "(centres undefined)", "solubility kinetic": 0.0475},
      {"molecule": "Cn1cnc(NCc2ccccc2)c1[N+](=O)[O-]", "solubility kinetic": 0.0012},
      {"molecule": "Fc1ccccc1-n1cc(-c2ccccc2)[nH]c1=S", "solubility kinetic": 0.0062},
      {"molecule": "COc1cccc(NC(=O)CN(C)C(C)C(=O)N2CCCCC2)c1.O=C(O)C(=O)O", "note": "(centres undefined)", "solubility kinetic": "> 0.0635"},
      {"molecule": "Cc1cccc(C)c1NC(=O)CN1C(=O)C(C)Oc2ccccc21", "note": "(centres undefined)", "solubility kinetic": 0.0116},
      {"molecule": "O=c1[nH]c(=O)n(C2CCCO2)cc1F", "note": "(centres undefined)", "solubility kinetic": 0.0299},
      {"molecule": "c1ccc(Oc2nc(-c3ccccn3)nc3ccccc23)cc1", "solubility kinetic": 0.0431},
      {"molecule": "Cc1ccc(S(=O)(=O)NCC(=O)OCC(=O)Nc2ccc(C)c(S(=O)(=O)N3CCOCC3)c2)cc1", "solubility kinetic": "> 0.0788"},
      {"molecule": "O=C(Cc1ccccc1)NCC(=O)N1CCCC1", "solubility kinetic": "> 0.0369"},
      {"molecule": "O=C(NCCCl)Nc1ccccc1NS(=O)(=O)c1cccs1", "solubility kinetic": "> 0.054"},
      {"molecule": "Cc1cc(C)n2nc(SCc3ccc(C#N)cc3)nc2n1", "solubility kinetic": "> 0.0443"},
      {"molecule": "CN1Cc2c(N3CCOCC3)nc3sc(C#N)c(N)c3c2CC1(C)C", "solubility kinetic": 0.015},
      {"molecule": "Cc1cc(C)nc(NC(=S)Nc2ccccc2)n1", "solubility kinetic": 0.0003},
      {"molecule": "O=C(Nc1ccccc1Cl)C1Cc2ccccc2O/C1=N\\O", "note": "(centres undefined)", "solubility kinetic": "> 0.0475"},
      {"molecule": "Cc1ccccc1OCCC(=O)Nc1ccccc1C(=O)N1CCCCC1", "solubility kinetic": 0.0527},
      {"molecule": "O=C(O)c1ccc(Cn2c(=S)[nH]c3cc(Cl)ccc3c2=O)cc1", "solubility kinetic": "> 0.052"},
      {"molecule": "CN1C(=O)C(=Cc2cn(CC#N)c3ccccc23)C(=O)N(C)C1=O", "solubility kinetic": 0.0081},
      {"molecule": "Nc1ccc(C(=O)Nc2cccc3ncccc23)cc1", "solubility kinetic": 0.0373},
      {"molecule": "O=C(Nc1nc2ccccc2s1)c1ccccc1[N+](=O)[O-]", "solubility kinetic": 0.0029},
      {"molecule": "Cc1ccc(N=C(NO)c2cnccc2C(F)(F)F)c(C)c1", "solubility kinetic": "> 0.0464"},
      {"molecule": "C=CCNc1cc(=O)n(Cc2ccccc2)c(=O)[nH]1", "solubility kinetic": 0.0297},
      {"molecule": "c1csc(-c2nnc(COc3ncnc4sccc34)o2)c1", "solubility kinetic": "> 0.0475"},
      {"molecule": "COc1ccc(C(=O)Nc2ccc(NC(=O)C3CCCCC3)nc2)cc1", "solubility kinetic": 0.0004}
    ]}
  ]
}
